Assay results from PubChem BioAssay (NCI).
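Values below derive from 48-hour exposures of cells grown in 96-well plates, with endpoints linearly interpolated between the two concentrations bracketing the appropriate inhibition level. Here, GI50 denotes the concentration required for 50% inhibition of growth. TGI: concentration producing complete growth inhibition.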

Legend:
Assay in all cases: NCI tumour cell line growth inhibition, 48 h
786-0 renal = system: 786-0 renal
HL-60(TB) leukemia = system: HL-60(TB) leukemia
KM12 colon = system: KM12 colon
NCI-H23 lung = system: NCI-H23 lung
OVCAR-5 ovarian = system: OVCAR-5 ovarian
RPMI-8226 leukemia = system: RPMI-8226 leukemia
RXF 393 renal = system: RXF 393 renal
SNB-19 CNS = system: SNB-19 CNS
U251 CNS = system: U251 CNS
MALME-3M melanoma = system: MALME-3M melanoma

SMILES | TGI (786-0 renal) | TGI (HL-60(TB) leukemia) | TGI (KM12 colon) | TGI (NCI-H23 lung) | TGI (OVCAR-5 ovarian) | TGI (RPMI-8226 leukemia) | TGI (RXF 393 renal) | TGI (SNB-19 CNS) | TGI (U251 CNS) | GI50 (786-0 renal) | GI50 (KM12 colon) | GI50 (MALME-3M melanoma) | TGI (MALME-3M melanoma) | GI50 (NCI-H23 lung) | GI50 (OVCAR-5 ovarian) | GI50 (RPMI-8226 leukemia) | GI50 (RXF 393 renal) | GI50 (SNB-19 CNS) | GI50 (U251 CNS) | GI50 (HL-60(TB) leukemia)
N#CC1CC2(C1)OCCS2 (stereo unspecified) | > 100 µM | > 100 µM | > 100 µM | > 100 µM | > 100 µM | > 100 µM | > 100 µM | > 100 µM | > 100 µM |  |  |  |  |  |  |  |  |  |  | 
COc1cccc(C#Cc2ccccc2C#CCCCCO)c1 | 28 µM |  | 41.8 µM | 26.1 µM | 29.3 µM | 26.4 µM | 9.89 µM | 35.5 µM | 22.3 µM | 12800 nM | 12400 nM | 13900 nM | 37.9 µM | 12.5 µM | 14.6 µM | 3770 nM | 1780 nM | 18.5 µM | 8410 nM | 
COc1cccc2c(=O)c3c(sc12)c(N1CCNCC1)nc1ccccc13 | 3.39 µM |  | 3.41 µM | 3.1 µM | 3.24 µM | 5.8 µM | 3.05 µM | 3.39 µM |  | 1730 nM | 1790 nM | 1650 nM | 3.24 µM | 1.62 µM | 1.79 µM | 2390 nM | 1530 nM | 1.79 µM |  | 
O=C1CSC(/C(=N/Nc2ccccc2)c2nc3ccccc3[nH]2)=N1 | 80 µM | > 100 µM | > 100 µM | > 100 µM | > 100 µM |  |  | > 100 µM | > 100 µM |  |  |  | > 100 µM |  |  |  |  |  |  | 
O=c1c2ccccc2c(=O)c2c1[nH]c1c(-c3ccccc3)c(-c3ccccc3)c(=O)c12 | 14.9 µM |  | 6.34 µM | 14.4 µM | 14.7 µM | 12 µM | 5.02 µM | 11.8 µM | 4.9 µM | 3960 nM | 2300 nM | 2240 nM | 8.19 µM | 3.72 µM | 4.27 µM | 2070 nM | 1540 nM | 3.26 µM | 2270 nM | 
COc1cc(/C=C(\C#N)c2ccccc2)cc(OC)c1 | > 100 µM | > 100 µM | > 100 µM | > 100 µM | > 100 µM | > 100 µM |  | > 100 µM | > 100 µM |  |  |  | > 100 µM |  |  |  |  |  |  | 
O=C1CC2c3ccccc3CCC2c2ccccc21 (stereo unspecified) | 79.8 µM | > 100 µM | 26.8 µM | 69 µM | > 100 µM | > 100 µM |  | > 100 µM | > 100 µM |  |  |  |  |  |  |  |  |  |  | 
C=CC/C=C/C/C=C/CCCCCCCc1cccc(O)c1C(=O)O | > 100 µM | > 100 µM | > 100 µM | 75.9 µM | > 100 µM | > 100 µM |  | > 100 µM | 46 µM |  |  |  | > 100 µM |  |  |  |  |  |  | 
NC(=O)NCc1c(C(N)=O)ncn1Cc1ccccc1 | > 100 µM | > 100 µM |  | > 100 µM |  | > 100 µM | > 100 µM | > 100 µM | > 100 µM |  |  |  |  |  |  |  |  |  |  | 
CCN(CC)c1ccc(N=Nc2ccc(-c3nc4ccc[n+](C)c4s3)cc2)cc1 | 59.1 µM |  | 10.9 µM | 24.9 µM | 31.1 µM | 25.7 µM |  | 25.1 µM | 27.1 µM |  |  |  | 26.3 µM |  |  |  |  |  |  | 
COc1cc(/C=C/c2cc(/C=C/c3ccc(O)c(OC)c3)n(C(=O)Nc3ccc(C)cc3C)n2)ccc1O | 1.76 µM | 0.801 µM |  | 1.25 µM | 6.85 µM | 1.74 µM | 0.775 µM |  | 1.47 µM | 549 nM |  |  |  | 0.275 µM | 1.51 µM | 352 nM | 262 nM |  | 401 nM | 262 nM
Cc1ncc(CCCN(C)C)cc1Nc1ncc2c(n1)-c1ccc(C(F)(F)F)cc1NC(=S)C2 | 21.6 µM | 0.872 µM | 10.9 µM | 17.1 µM | > 51.1 µM | 21.1 µM |  | 68.9 µM | 14 µM | 82.5 nM | < 13.4 nM | 31.2 nM | 23.6 µM | < 0.0138 µM | < 0.0237 µM | 43.4 nM |  | 0.0713 µM | < 19.4 nM | < 14.8 nM
CC(C)(C)c1cc(C(O)(C(F)(F)F)C(F)(F)F)c2c(c1)C(C(F)(F)F)(C(F)(F)F)OC(C(C)(C)C)N2 (stereo unspecified) | 11.9 µM |  | 14 µM | 8.6 µM | 23.3 µM | 6.74 µM | 6.51 µM | 19.3 µM | 10.8 µM |  |  |  |  |  |  |  |  |  |  | 
Cc1[nH]c2ccccc2c(=O)c1CC=C(Cl)Cl | > 100 µM | > 100 µM | > 100 µM | > 100 µM | > 100 µM | > 100 µM |  | > 100 µM |  | 35300 nM | > 100000 nM | > 100000 nM | > 100 µM | 50.6 µM | > 100 µM | 84400 nM |  | 25.7 µM |  | > 100000 nM
